Patent EP1641803B1, “THIENOPYRIMIDINE DERIVATIVES AS POTASSIUM CHANNEL INHIBITORS” (Xention Limited, priority 2003, dated 2004)

How the values were obtained:
human Kv1.5 = target: T1, human Kv1.5 (Homo sapiens, UniProt P22460); test: Kv1.5 Rb+ Efflux Assay; type: cell-based; conditions: inhibition of 86Rb+ efflux through Kv1.5; cells stably transfected with human Kv1.5; 10 point concentration response curves n=2; normalised to 2.5mM 4 amino-pyridine block
T1 construct: expressed in transfected cells
T1 sequence (P22460 whole entry): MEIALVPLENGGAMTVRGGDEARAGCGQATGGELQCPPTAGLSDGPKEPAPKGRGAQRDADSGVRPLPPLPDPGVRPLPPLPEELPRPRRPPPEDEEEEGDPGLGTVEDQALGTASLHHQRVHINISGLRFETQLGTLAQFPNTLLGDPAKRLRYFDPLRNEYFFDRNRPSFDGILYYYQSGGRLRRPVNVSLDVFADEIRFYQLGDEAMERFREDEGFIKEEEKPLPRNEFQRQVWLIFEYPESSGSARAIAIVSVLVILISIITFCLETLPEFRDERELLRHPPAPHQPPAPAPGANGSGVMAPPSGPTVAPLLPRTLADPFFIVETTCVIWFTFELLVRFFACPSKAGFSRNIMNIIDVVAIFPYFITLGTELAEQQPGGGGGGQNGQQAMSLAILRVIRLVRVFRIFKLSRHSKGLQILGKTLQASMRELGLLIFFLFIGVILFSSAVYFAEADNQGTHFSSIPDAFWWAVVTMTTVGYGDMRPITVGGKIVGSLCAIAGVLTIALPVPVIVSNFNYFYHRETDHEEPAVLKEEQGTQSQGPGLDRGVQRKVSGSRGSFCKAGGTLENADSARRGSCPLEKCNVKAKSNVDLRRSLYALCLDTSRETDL
Method: The pore of a potassium channel is permeable to other monovalent cations such as Rb^+ and Tl^+. Analysis of cellular efflux of potassium channel permeable ions enables potassium channel activity to be monitored directly. Cells stably transfected with cDNA for human Kv1.5 (in pEF6::VA-His-TOPO) were grown in Dulbecco's Modified Eagle media (DMEM) alpha supplemented with 10% Fetal Calf Serum (FCS), 20 µl/ml penicillin (5000U/ml) streptomycin (5000µg/ml), 10µl/ml [100x] glutamine, and blasticidin (7.5µg/ml). Cells were dispensed into 96 well cellstar TC plates and allowed to grow until a confluent monolayer was visible. On the morning of the assay run, cold media was aspirated using the TECAN plate washer, and a 50µl media spike containing 2µCi/ml (37kBq/ml) ^86Rb^+ added to each well containing cells using the Shallow-Well Matrix Platemate. Plates were placed in a incubator at 37°C for a minimum of 3 hours. Unloaded ^86Rb^+ in the "hot" media was aspirated and each well washed 4x250µl with Earls Balanced Salt Solution (EBSS) which contained 5mM KCl, 140mM NaCl, 2mM CaCl2, 1mM MgSO4, 10mM HEPES, and 5mM glucose, pH 7.4, 290-300 mOsm. These cells were then pre-incubated with 50µl of EBSS +/- test compounds for 10 minutes at room temperature. After the 10 minute incubation, 50µl of modified EBSS which contained 145mM KCl, 2mM CaCl2, 1mM MgSO4, 10mM HEPES, 5mM glucose, pH 7.4, 290-300 mOsm, was added, and the cells were incubated for a further 10 minutes at room temperature. The high KCl EBSS was used to depolarise cells to a membrane potential that would activate Kv1.5 channels. After the final incubation 80µl/100µl of the reaction from each well was transferred to equivalent wells in a Packard "Optiplate" white 96 well plate and counted in a Packard TopCount liquid scintillation counter by Cerenkov emission. Percentage inhibition ^86Rb^+ efflux through Kv1.5 was calculated by normalisation to 2.5mM 4 amino-pyridine control block of Kv1.5. Alternatively cells were loaded with ^85Rb^+ and quantified by atomic absorption spectroscopy. IC50 determinations were derived from 10 point concentration response curves n=2 using the method described above. Data was fitted as variable slope sigmoidal fit using Graphpad Prism (V3.02) software.

hKv1.5 = hKv1.5 (Homo sapiens, UniProt P22460); test: Kv1.5 Autopatch Electrophysiology (whole cell patch-clamp); type: cell-based; conditions: compound at 1µM, room temperature (22-24°C), held at -80mV, step to 0mV for 1000ms, total charge measured
Sequence of hKv1.5 (P22460 whole entry): as above
Method: The external bathing solution contained (in mM): 150 NaCl, 10 KCl, […], 3 MgCl2, 1 CaCl2, 10 HEPES, pH 7.4. Patch pipettes were filled with an electrode solution of composition (in mM): 160 KCl, 0.5 MgCl2, 10 HEPES, 1 EGTA, pH 7.4 with KOH.
Compounds were dissolved in DMSO (100 %) and made up in the external bather at a concentration of 1µM. All experiments were conducted at room temperature (22-24°C).
A cell suspension (10 ml), with a density of 100,000 cells/ml, was aliquoted into a 15ml centrifuge tube and transferred to an incubator (37°C, 5% CO2) for approximately one hour before use. Following 60 min incubation, a tube was taken and centrifuged at 1000 rpm for 4 mins at room temperature. 9.5 ml supernatant was thence discarded, leaving a cell pellet at the bottom of the tube. The pellet was then resuspended using 100 µl of cold (4 °C), filtered (0.22 µm), 0.2 % BSA/bather solution (0.02g BSA/10ml bather). The bottom of the tube was manually agitated gently until the solution became cloudy with cells. The 100 µl cell resuspension solution was then stored on the bench at 4 °C (using a Peltier-based temperature control device) until used.
A length of capillary glass (1B150F-4, WPI) was dipped into the cell suspension solution, such that - 3 cm column of fluid was taken up by capillary action. A Ag/AgCl wire was dropped into the non-dipped end of the capillary also. The outside of the solution-filled end of the capillary was then dried and the capillary was loaded into the AutoPatch™. Borosilicate glass patch pipettes (from 1.5mm OD, thin-walled filamented, GC150-TF capillary glass, Harvard) were pulled using a DMZ pipette puller (Zeitz Instruments), and were back-filled using the internal pipette solution, being careful that no bubbles remain at the tip or in the body of the pipette. Patch pipettes typically had resistances of 2.3-3.5 MΩ. Once filled, the pipette tip and a proportion of the shaft (- 15 mm) were dipped into Sigmacote (Sigma). The recording pipette was then loaded into the AutoPatch™.
Automated patch-clamping was initiated by the operator, but thereafter AutoPatch.exe continued the experiment providing that pre-set conditions and criteria were satisfied.
Whole cell patch-clamp recordings were made using the AutoPatch™ rig, which incorporated an EPC9 amplifier (HEKA, Germany) under control of Pulse software (v8.54, HEKA, Germany), a motion controller with 2 translators (Newport, UK), valve controller (VF1) and a c-level suction device all at room temperature (22-24°C). This equipment was completely under the control of AutoPatch.exe and operator intervention was only made when there was a requirement to refill the drug reservoirs or to prevent the loss of a cell due to a technical error. Cells with an Rseries greater than 18 MΩ were discounted from the experiment.
Qualification stages prior to perfusion and drug application ensured that the observed current met the criteria for the experiment. Only those cells with an IK > 500 pA were used for experiments. Cells were continuously perfused with external solution at a flow rate of 1.8-2 ml/minute. […] Online analysis of the hKv1.5 current during the application of compounds was performed by the AutoPatch™ software. Voltage-step protocols and analysis of data was performed as described for conventional electrophysiology.
Electrophysiology voltage-step protocols and analysis of data was performed as follows. Data was sampled at 5kHz, and filtered with a -3 dB bandwidth of 2.5kHz. Cells were held at a voltage of -80mV. Currents were evoked to a voltage step for 1000ms in duration at 0mV every 5s. Currents were analysed using Pulsefit software (v8.54, HEKA, Germany), with the total charge measured during the whole of the voltage step. All other plots were produced using Igor Pro (WaveMetrics).

| Structure (SMILES) | IC50 (human Kv1.5) | inhibition at 1 µM (hKv1.5) | % Inhibition at 1µM (hKv1.5) |
| --- | --- | --- | --- |
| CN(C)C(=O)CNc1ncnc2scc(-c3ccccc3)c12 [Example 103, N,N-Dimethyl-2-(5-phenyl-thieno[2,3-d]pyrimidin-4-ylamino)-acetamide] | > 30 µM | 13.6% | – |
| c1ccc(-c2csc3ncnc(NCc4ccccn4)c23)cc1 [Example 105, (5-Phenyl-thieno[2,3-d]pyrimidin-4-yl)-pyridin-2-ylmethyl-amine] | 0.28 µM | 63% | – |
| c1ccc(-c2csc3ncnc(OCc4ccccn4)c23)cc1 [Example 106, 5-Phenyl-4-(pyridin-2-ylmethoxy)-thieno[2,3-d]pyrimidine] | 0.33 µM | 21.9% | – |
| c1ccc(-c2csc3ncnc(NCc4ccoc4)c23)cc1 [Example 107, Furan-3-ylmethyl-(5-phenyl-thieno[2,3-d]pyrimidin-4-yl)-amine] | 1.05 µM | 25.3% | – |
| Cc1ccc(CNc2ncnc3scc(-c4ccccc4)c23)o1 [Example 108, (5-Methyl-furan-2-ylmethyl)-(5-phenyl-thieno[2,3-d]pyrimidin-4-yl)-amine] | 0.41 µM | 37.2% | – |
| c1ccc(-c2csc3ncnc(OCc4ccco4)c23)cc1 [Example 109, 4-(Furan-2-ylmethoxy)-5-phenyl-thieno[2,3-d]pyrimidine] | 0.8 µM | 52.3% | – |
| Cn1cccc1CNc1ncnc2scc(-c3ccccc3)c12 [Example 110, (1-Methyl-1H-pyrrol-2-ylmethyl)-(5-phenyl-thieno[2,3-d]pyrimidin-4-yl)-amine] | 3.9 µM | 14.2% | – |
| c1ccc(-c2csc3ncnc(NCCc4ccccn4)c23)cc1 [Example 111, (5-Phenyl-thieno[2,3-d]pyrimidin-4-yl)-(2-pyridin-2-yl-ethyl)-amine] | 4.49 µM | 40% | 22.2% |
| COC(=O)CNc1ncnc2scc(-c3ccccc3)c12 [Example 112, (5-Phenyl-thieno[2,3-d]pyrimidin-4-ylamino)-acetic acid methyl ester] | 5.03 µM | 43.5% | – |
| c1csc(CNc2ncnc3scc(-c4cccs4)c23)c1 [Example 115, Thiophen-2-ylmethyl-(5-thiophen-2-yl-thieno[2,3-d]pyrimidin-4-yl)-amine] | 7.07 µM | – | 45.9% |
| c1ccc(-c2csc3ncnc(SCc4ccco4)c23)cc1 [Example 117, 4-(Furan-2-ylmethylsulfanyl)-5-phenyl-thieno[2,3-d]pyrimidine] | 9.37 µM | 43.6% | 57.2% |
| c1ccc(-c2csc3ncnc(NCCc4cccs4)c23)cc1 [Example 118, (5-Phenyl-thieno[2,3-d]pyrimidin-4-yl)-(2-thiophen-2-yl-ethyl)-amine] | 8.56 µM | 15.8% | – |
| c1ccc(COc2ncnc3scc(-c4ccccc4)c23)cc1 [Example 119, 4-Benzyloxy-5-phenyl-thieno[2,3-d]pyrimidine] | 5.79 µM | 44.1% | – |
| c1ccc(-c2csc3ncnc(SCc4ccccn4)c23)cc1 [Example 120, 5-Phenyl-4-(pyridin-2-ylmethylsulfanyl)-thieno[2,3-d]pyrimidine] | 12.7 µM | 25% | – |

Now from value to compound:

| IC50 (human Kv1.5) | inhibition at 1 µM (hKv1.5) | % Inhibition at 1µM (hKv1.5) | Structure (SMILES) |
| --- | --- | --- | --- |
| 2.09 µM | 82.6% | – | Cc1ccc(-c2csc3ncnc(NCc4ccccn4)c23)nc1 [Example 121, [5-(5-Methyl-pyridin-2-yl)-thieno[2,3-d]pyrimidin-4-yl]-pyridin-2-ylmethyl-amine] |
| 3.53 µM | 36.3% | – | Cc1ccc(-c2csc3ncnc(NCc4ccco4)c23)nc1 [Example 122, Furan-2-ylmethyl-[5-(5-methyl-pyridin-2-yl)-thieno[2,3-d]pyrimidin-4-yl]-amine] |
| 0.47 µM | 83.4% | – | Cc1ccc(-c2csc3ncnc(NCc4ccco4)c23)cc1 [Example 126, Furan-2-ylmethyl-(5-p-tolyl-thieno[2,3-d]pyrimidin-4-yl)-amine] |
| 5.3 µM | 20.7% | – | COc1ccc(CCNc2ncnc3scc(-c4ccc(C)cc4)c23)cc1OC [Example 127, [2-(3,4-Dimethoxy-phenyl)-ethyl]-(5-p-tolyl-thieno[2,3-d]pyrimidin-4-yl)-amine] |
| > 30 µM | 25% | – | Cc1ccc(-c2csc3ncnc(NCCN4CCNC4=O)c23)cc1 [Example 128, 1-[2-(5-p-Tolyl-thieno[2,3-d]pyrimidin-4-ylamino)-ethyl]-imidazolidin-2-one] |
| > 30 µM | 47.4% | – | Cc1ccc(-c2csc3ncnc(Oc4ccc5ccccc5c4)c23)cc1 [Example 129, 4-(Naphthalen-2-yloxy)-5-p-tolyl-thieno[2,3-d]pyrimidine] |
| > 30 µM | 29.8% | – | COC(=O)c1ccc(Oc2ncnc3scc(-c4ccc(C)cc4)c23)cc1 [Example 131, 4-(5-p-Tolyl-thieno[2,3-d]pyrimidin-4-yloxy)-benzoic acid methyl ester] |
| 4.58 µM | 92% | – | Cc1ccc(-c2csc3ncnc(NCCc4ccc5c(c4)OCCO5)c23)cc1C [Example 132, [2-(2,3-Dihydro-benzo[1,4]dioxin-6-yl)-ethyl]-[5-(3,4-dimethyl-phenyl)-thieno[2,3-d]pyrimidin-4-yl]-amine] |
| 0.67 µM | 77% | – | Cc1ccc(-c2csc3ncnc(NCc4ccco4)c23)cc1C [Example 133, [5-(3,4-Dimethyl-phenyl)-thieno[2,3-d]pyrimidin-4-yl]-furan-2-ylmethyl-amine] |
| 0.93 µM | 84.8% | – | Clc1ccc(-c2csc3ncnc(NCc4ccco4)c23)cc1 [Example 135, [5-(4-Chloro-phenyl)-thieno[2,3-d]pyrimidin-4-yl]-furan-2-ylmethyl-amine] |
